Target: T1, NO synthase (Rattus norvegicus, UniProt P29476)
T1 construct: the supernatant was then removed by decantation and frozen in portions at −80° C; from tissue; host or cells: rat cerebellum, 20,000 g supernatant of homogenate
Assay: HTS-NOS assay (NOS assay): conversion of radioactive arginine, cation-exchanger filter plate
Assay type: biochemical
Conditions: for inhibition at 10 µM: read-out: HTS-NOS assay: % inhibition (10 μM); for NOS assay % inhibition: Table 5, concentration not given
In short: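 Rat cerebellum supernatant as NOS source, incubated with radiolabelled arginine plus cofactors including NADPH at 25 °C for 5-60 min depending on enzyme activity. Unconverted arginine was trapped on a cation-exchange filter plate, citrulline washed out, and bound arginine counted by scintillation; % inhibition versus no-compound reactions.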

SMILES	inhibition at 10 µM [%]	also measured
CC(=O)N(c1c(-c2cc(C)c(C)o2)nc2ccc(C)cn12)C(C)(C)C [Example 268, N-tert-butyl-N-[2-(4,5-dimethyl-furan-2-yl)-6-methyl-imidazo[1,2-a]pyridin-3-yl]-acetamide]	51	
CC(=O)N(c1c(-c2cccc(Oc3ccc(Cl)cc3)c2)nc2ccccn12)C1CCCCC1 [Example 269, N-{2-[3-(4-chloro-phenoxy)-phenyl]-imidazo[1,2-a]pyridin-3-yl}-N-cyclohexyl-acetamide]	51	
COc1cc(-c2nc3ncccn3c2N(C(C)=O)C2CCCCC2)ccc1OC(C)=O [Example 270, acetic acid 4-[3-(acetyl-cyclohexyl-amino)-imidazo[1,2-a]pyrimidin-2-yl]-2-methoxy-phenyl ester]	52	
CC(=O)N(c1c(-c2ccc(Br)o2)nc2c(C)cccn12)C(C)(C)CC(C)(C)C [Example 271, N-[2-(5-bromo-furan-2-yl)-8-methyl-imidazo[1,2-a]pyridin-3-yl]-N-(1,1,3,3-tetramethyl-butyl)-acetamide]	51	
CC(=O)N(c1c(C)cccc1C)c1c(-c2cccc(O)c2)nc2nc(C)cc(C)n12 [Example 272, N-(2,6-dimethyl-phenyl)-N-[2-(3-hydroxy-phenyl)-5,7-dimethyl-imidazo[1,2-a]-pyrimidin-3-yl]-acetamide]	54	
CC(=O)N(c1c(-c2cccc(Cl)c2Cl)nc2ccccn12)C1CCCCC1 [Example 273, N-cyclohexyl-N-[2-(2,3-dichloro-phenyl)-imidazo[1,2-a]pyridin-3-yl]-acetamide]	55	
CC(=O)N(c1c(-c2ccc(Cl)cc2Cl)nc2cccc(C)n12)C1CCCCC1 [Example 274, N-cyclohexyl-N-[2-(2,4-dichloro-phenyl)-5-methyl-imidazo[1,2-a]pyridin-3-yl]-acetamide]	64	
CC(=O)N(c1c(-c2ccc(Cl)cc2Cl)nc2ncccn12)C1CCCCC1 [Example 275, N-cyclohexyl-N-[2-(2,4-dichloro-phenyl)-imidazo[1,2-a]pyrimidin-3-yl]-acetamide]	59	
COC(=O)CN(C(C)=O)c1c(-c2ccccc2C)nc2cnccn12 [Example 276, [acetyl-(2-o-tolyl-imidazo[1,2-a]pyrazin-3-yl)-amino]-acetic acid methyl ester]	50	
CC(=O)N(c1c(-c2cccs2)nc2c(Cl)cc(Cl)cn12)C(C)(C)C [Example 277, N-tert-butyl-N-(6,8-dichloro-2-thiophen-2-yl-imidazo[1,2-a]pyridin-3-yl)-acetamide]	53	
CCCc1cccc2nc(-c3cccs3)c(N(C(C)=O)C(C)(C)C)n12 [Example 278, N-tert-butyl-N-(5-propyl-2-thiophen-2-yl-imidazo[1,2-a]pyridin-3-yl)-acetamide]	55	
C#[N+]CCCCCCN(C(C)=O)c1c(-c2ccc(C)cc2)nc2cc(C)ccn12 [Example 279, {6-[acetyl-(7-methyl-2-p-tolyl-imidazo[1,2-a]pyridin-3-yl)-amino]-hexyl}-methylidyne-ammonium]		HTS-NOS assay: % inhibition (10 μM): 71%
CCCCN(C(C)=O)c1c(-c2ccc(C)cc2)nc2ccc(C)cn12 [Example 280, N-butyl-N-(6-methyl-2-p-tolyl-imidazo[1,2-a]pyridin-3-yl)-acetamide]	53	
[C-]#[N+]CCCCCCN(C(C)=O)c1c(-c2ccccc2OC)nc2cc(C)ccn12 [Example 281, (6-{acetyl-[2-(2-methoxy-phenyl)-7-methyl-imidazo[1,2-a]pyridin-3-yl]-amino}-hexyl)-methylidyne-ammonium]		HTS-NOS assay: % inhibition (10 μM): 62%
CC(=O)N(c1c(-c2ccc(C(=O)O)o2)nc2ccc(C)cn12)C(C)(C)CC(C)(C)C [Example 282, 5-{3-[acetyl-(1,1,3,3-tetramethyl-butyl)-amino]-6-methyl-imidazo[1,2-a]pyridin-2-yl}-furan-2-carboxylic acid]	51	
CCCCN(C(C)=O)c1c(-c2cc(OC)c(OC)c(OC)c2)nc2cnccn12 [Example 283, N-butyl-N-[2-(3,4,5-trimethoxy-phenyl)-imidazo[1,2-a]pyrazin-3-yl]-acetamide]	51	
CCCCN(C(C)=O)c1c(-c2cccc(O)c2)nc2ncccn12 [Example 284, N-butyl-N-[2-(3-hydroxy-phenyl)-imidazo[1,2-a]pyrimidin-3-yl]-acetamide]	51	
COC(=O)CN(C(C)=O)c1c(-c2ccccc2C)nc2ncccn12 [Example 285, [acetyl-(2-o-tolyl-imidazo[1,2-a]pyrimidin-3-yl)-amino]-acetic acid methyl ester]	51	
CC(=O)N(c1c(-c2cc3ccccc3o2)nc2c(C)cccn12)C(C)(C)CC(C)(C)C [Example 286, N-(2-benzofuran-2-yl-8-methyl-imidazo[1,2-a]pyridin-3-yl)-N-(1,1,3,3-tetramethyl-butyl)-acetamide]	59	

SMILES	inhibition at 10 µM [%]	also measured
CCCCN(C(C)=O)c1c(-c2ccc(C)cc2)nc2nc(C)ccn12 [Example 287, N-butyl-N-(7-methyl-2-p-tolyl-imidazo[1,2-a]pyrimidin-3-yl)-acetamide]	58	
CC(=O)N(c1c(C)nc2c(Br)cc(Br)cn12)C(C)(C)C [Example 288, N-tert-butyl-N-(6,8-dibromo-2-methyl-imidazo[1,2-a]pyridin-3-yl)-acetamide]	62	
C#[N+]CCCCCCN(C(C)=O)c1c(-c2ccccn2)nc2cc(C)cc(C)n12 [Example 289, {6-[acetyl-(5,7-dimethyl-2-pyridin-2-yl-imidazo[1,2-a]pyridin-3-yl)-amino]-hexyl}-methylidyne-ammonium]		HTS-NOS assay: % inhibition (10 μM): 63%
CCOc1ccc2ccccc2c1-c1nc2cc(C)ccn2c1N(C(C)=O)C(C)(C)C [Example 290, N-tert-butyl-N-[2-(2-ethoxy-naphthalen-1-yl)-7-methyl-imidazo[1,2-a]pyridin-3-yl]-acetamide]	67	
CC(=O)N(c1c(-c2ccc(F)cc2Cl)nc2ccccn12)C(C)(C)C [Example 291, N-tert-butyl-N-[2-(2-chloro-4-fluoro-phenyl)-imidazo[1,2-a]pyridin-3-yl]-acetamide]	53	
Cc1cc(C)n2c(NC3CCCCC3)c(-c3ccoc3)nc2c1.Cl [Example 302, Cyclohexyl-(2-furan-3-yl-5,7-dimethyl-imidazo-[1,2-a]pyridin-3-yl)-amine hydrochloride]		NOS assay % inhibition (hydrochloride): 54%
Cc1cc(C)n2c(NC3CCCC3)c(-c3ccc(Br)cc3F)nc2c1.Cl [Example 304, [2-(4-Bromo-2-fluoro-phenyl)-5,7-dimethyl-imidazo[1,2-a]pyridin-3-yl]-cyclopentyl-amine hydrochloride]		NOS assay % inhibition: 56%
Cc1cc(C)n2c(NC3CCCC3)c(-c3ccc(-c4ccccc4[N+](=O)[O-])o3)nc2c1.Cl [Example 305, Cyclopentyl-{5,7-dimethyl-2-[5-(2-nitro-phenyl)-furan-2-yl]-imidazo[1,2-a]pyridin-3-yl}-amine hydrochloride]		NOS assay % inhibition: 55%
Cc1cc(C)n2c(NC3CCCC3)c(-c3ccc(-c4ccc(Cl)cc4)o3)nc2c1.Cl [Example 306, {2-[5-(4-Chlorophenyl)-furan-2-yl]-5,7-dimethyl-imidazo[1,2-a]pyridin-3-yl}-cyclopentyl-amine hydrochloride]		NOS assay % inhibition: 73%
Cc1cc(C)n2c(NC3CCCC3)c(-c3ccoc3)nc2c1.Cl [Example 307, Cyclopentyl-(2-furan-3-yl-5,7-dimethyl-imidazo(1,2-a]pyridin-3-yl)-amine hydrochloride]		NOS assay % inhibition: 57%
Cc1cc(C)n2c(NC(C)(C)CC(C)(C)C)c(-c3ccoc3)nc2c1.Cl [Example 308, (2-Furan-3-yl-5,7-dimethyl-imidazo[1,2-a]-pyridin-3-yl)-(1,1,3,3-tetramethyl-butyl)-amine hydrochloride]		NOS assay % inhibition: 50%
Cc1ccn2c(NCc3ccccc3)c(-c3ccsc3)nc2c1.Cl [Example 309, Benzyl-(7-methyl-2-thiophen-3-yl-imidazo-[1,2-a]pyridin-3-yl)-amine hydrochloride]		NOS assay % inhibition: 45%
Cc1cc(C)n2c(NC3CCCCC3)c(-c3ccoc3)nc2c1.Cl [Example 310, Cyclohexyl-(2-furan-3-yl-5,7-dimethyl-imidazo-[1,2-a]pyridin-3-yl)-amine hydrochloride]		NOS assay % inhibition (hydrochloride): 52%
Cc1ccn2c(NC(C)(C)CC(C)(C)C)c(-c3ccoc3)nc2c1.Cl [Example 311, (2-Furan-3-yl-7-methyl-imidazo[1,2-a]pyridin-3-yl)-(1,1,3,3-tetramethyl-butyl)-amine hydrochloride]		NOS assay % inhibition: 45%
Cc1cc(C)n2c(NC(C)(C)CC(C)(C)C)c(-c3ccsc3)nc2c1.Cl [Example 312, (5,7-Dimethyl-2-thiophen-3-yl-imidazo[1,2-a]-pyridin-3-yl)-(1,1,3,3-tetramethyl-butyl)-amine hydrochloride]		NOS assay % inhibition: 74%
CCc1ccn2c(NCc3ccccc3OC)c(-c3ccc([N+](=O)[O-])o3)nc2c1 [Example 313, [7-Ethyl-2-(5-nitro-furan-2-yl)-imidazo[1,2-a]pyridin-3-yl]-(2-methoxy-benzyl)-amine]	32	
CCc1ccn2c(NCc3ccccc3Cl)c(-c3ccc([N+](=O)[O-])o3)nc2c1 [Example 314, (2-Chlorobenzyl)-[7-ethyl-2-(5-nitro-furan-2-yl)-imidazo[1,2-a]pyridin-3-yl]-amine]	47	
CCc1ccn2c(NCc3ccccc3OC)c(-c3ccc(C)o3)nc2c1 [Example 315, [7-Ethyl-2-(5-methyl-furan-2-yl)-imidazo[1,2-a]pyridin-3-yl]-(2-methoxy-benzyl)-amine]	32	
CCc1ccn2c(NCc3ccccc3Cl)c(-c3ccco3)nc2c1 [Example 316, (2-Chloro-benzyl)-(7-ethyl-2-furan-2-yl-imidazo[1,2-a]pyridin-3-yl)-amine]	52	

— US20040023972A1, “Use of substituted imidazo[1,2-a]-pyridin-, -pyrimidin-and-pyrazin-3-yl-amine derivatives in the preparation of medicaments for inhibiting NOS” (Gruenenthal GmbH, priority 2000, published 2004)
